From ChEMBL document CHEMBL6182864, “Design, synthesis and biological evaluation of 3-amino-6-(2-hydroxyphenyl)pyridazin-4-aryl derivatives as SMARCA2/4 degraders” (Eur J Med Chem, 2025)
pIC50: −log10 of the molar value. The source made the active and inactive calls. The rule behind the calls is not given here.

Key:
[1] = system: MOLM-13; assay: Induction of apoptosis in human MOLM-13 cells assessed as late apoptotic cells at 100 nM measured after 72 hrs by Annexin-V-FITC/propidium iodide staining based flow cytometry (reference value: 3.87%); type: functional
[2] = system: MOLM-13; assay: Induction of apoptosis in human MOLM-13 cells assessed as viable cells at 1000 nM measured after 72 hrs by Annexin-V-FITC/propidium iodide staining based flow cytometry (reference value: 90.28%); type: functional; conditions: read-out: Activity
[3] = system: MV4-11; assay: Induction of apoptosis in human MV4-11 cells assessed as early apoptotic cells at 300 nM measured after 72 hrs by Annexin-V-FITC/propidium iodide staining based flow cytometry (reference value: 9.32%); type: functional
[4] = system: MV4-11; assay: Down regulation of CD44 mRNA expression in human MV4-11 cells at 11.1 to 1000 nM measured after 24 hrs by RT-qPCR analysis; type: functional, cell-based; conditions: dose 11.1-1000 nM
[5] = system: MV4-11; assay: Induction of apoptosis in human MV4-11 cells assessed as upregulation of cleaved caspase-3 expression measured after 72 hrs by Western blot analysis; type: functional, cell-based; conditions: dose 100-1000 nM
[6] = system: MOLM-13; assay: Induction of apoptosis in human MOLM-13 cells assessed as necrotic cells at 1000 nM measured after 72 hrs by Annexin-V-FITC/propidium iodide staining based flow cytometry (reference value: 0.28%); type: functional
[7] = system: MV4-11; assay: Induction of apoptosis in human MV4-11 cells assessed as upregulation of PARP expression measured after 72 hrs by Western blot analysis; type: functional, cell-based; conditions: dose 100-1000 nM
[8] = system: MV4-11; assay: Down regulation of BCL-2 mRNA expression in human MV4-11 cells at 11.1 to 1000 nM measured after 24 hrs by RT-qPCR analysis; type: functional, cell-based; conditions: dose 11.1-1000 nM
[9] = system: MOLM-13; assay: Induction of apoptosis in human MOLM-13 cells assessed as necrotic cells at 300 nM measured after 72 hrs by Annexin-V-FITC/propidium iodide staining based flow cytometry (reference value: 0.28%); type: functional
[10] = system: MOLM-13; assay: Induction of apoptosis in human MOLM-13 cells assessed as late apoptotic cells at 300 nM measured after 72 hrs by Annexin-V-FITC/propidium iodide staining based flow cytometry (reference value: 3.87%); type: functional
[11] = system: MOLM-13; assay: Induction of apoptosis in human MOLM-13 cells assessed as early apoptotic cells at 1000 nM measured after 72 hrs by Annexin-V-FITC/propidium iodide staining based flow cytometry (reference value: 5.57%); type: functional
[12] = system: MV4-11; assay: Down regulation of MYC mRNA expression in human MV4-11 cells measured after 24 hrs by RT-qPCR analysis; type: functional, cell-based; conditions: dose 11.1-1000 nM
[13] = system: MOLM-13; assay: Induction of apoptosis in human MOLM-13 cells assessed as necrotic cells at 100 nM measured after 72 hrs by Annexin-V-FITC/propidium iodide staining based flow cytometry (reference value: 0.28%); type: functional
[14] = system: MV4-11; assay: Induction of apoptosis in human MV4-11 cells assessed as late apoptotic cells at 1000 nM measured after 72 hrs by Annexin-V-FITC/propidium iodide staining based flow cytometry (reference value: 1.09%); type: functional
[15] = system: MOLM-13; assay: Induction of apoptosis in human MOLM-13 cells assessed as early apoptotic cells at 300 nM measured after 72 hrs by Annexin-V-FITC/propidium iodide staining based flow cytometry (reference value: 5.57%); type: functional
[16] = system: MV4-11; assay: Down regulation of MYC protein expression in human MV4-11 cells at 11.1 to 1000 nM measured after 24 hrs by Western blot analysis; type: functional, cell-based; conditions: dose 11.1-1000 nM
[17] = system: MV4-11; assay: Down regulation of CDC25A mRNA expression in human MV4-11 cells at 100 to 1000 nM measured after 24 hrs by RT-qPCR analysis; type: functional, cell-based; conditions: dose 100-1000 nM
[18] = system: MV4-11; assay: Induction of apoptosis in human MV4-11 cells assessed as early apoptotic cells at 100 nM measured after 72 hrs by Annexin-V-FITC/propidium iodide staining based flow cytometry (reference value: 9.32%); type: functional
[19] = system: MV4-11; assay: Induction of apoptosis in human MV4-11 cells assessed as necrotic cells at 100 nM measured after 72 hrs by Annexin-V-FITC/propidium iodide staining based flow cytometry (reference value: 0.1%); type: functional
[20] = Cmax in SPF Sprague-Dawley rat at 1 mg/kg, iv by LC-MS/MS analysis; type: ADME, organism-based; conditions: in vivo
[21] = system: MOLM-13; assay: Induction of apoptosis in human MOLM-13 cells assessed as upregulation of cleaved caspase-3 expression measured after 72 hrs by Western blot analysis; type: functional, cell-based; conditions: dose 100-1000 nM
[22] = system: MOLM-13; assay: Induction of apoptosis in human MOLM-13 cells assessed as viable cells at 300 nM measured after 72 hrs by Annexin-V-FITC/propidium iodide staining based flow cytometry (reference value: 90.28%); type: functional; conditions: read-out: Activity
[23] = system: MV4-11; assay: Induction of apoptosis in human MV4-11 cells assessed as early apoptotic cells at 1000 nM measured after 72 hrs by Annexin-V-FITC/propidium iodide staining based flow cytometry (reference value: 9.32%); type: functional
[24] = system: HCT-116; assay: cells; conditions: Homo sapiens, HCT-116, 72 h
[25] = Cmax in SPF Sprague-Dawley rat at 10 mg/kg, po by LC-MS/MS analysis; type: ADME, organism-based; conditions: in vivo
[26] = system: A2780; assay: cells; conditions: Homo sapiens, A2780, 72 h
[27] = Tmax in SPF Sprague-Dawley rat at 10 mg/kg, po by LC-MS/MS analysis; type: ADME, organism-based; conditions: in vivo
[28] = system: MV4-11; assay: Induction of apoptosis in human MV4-11 cells assessed as viable cells at 1000 nM measured after 72 hrs by Annexin-V-FITC/propidium iodide staining based flow cytometry (reference value: 89.49%); type: functional; conditions: read-out: Activity
[29] = system: MV4-11; assay: Induction of apoptosis in human MV4-11 cells assessed as necrotic cells at 1000 nM measured after 72 hrs by Annexin-V-FITC/propidium iodide staining based flow cytometry (reference value: 0.1%); type: functional
[30] = Oral bioavailability in SPF Sprague-Dawley rat at 10 mg/kg by LC-MS/MS analysis; type: ADME, organism-based; conditions: in vivo
[31] = system: MV4-11; assay: Down regulation of TRAP1 mRNA expression in human MV4-11 cells at 11.1 to 33.3 nM measured after 24 hrs by RT-qPCR analysis; type: functional, cell-based; conditions: dose 11.1-33.3 nM
[32] = MRT (0 to t) in SPF Sprague-Dawley rat at 1 mg/kg, iv by LC-MS/MS analysis; type: ADME, organism-based; conditions: in vivo
[33] = system: MOLM-13; assay: Induction of apoptosis in human MOLM-13 cells assessed as early apoptotic cells at 100 nM measured after 72 hrs by Annexin-V-FITC/propidium iodide staining based flow cytometry (reference value: 5.57%); type: functional
[34] = system: MV4-11; assay: Induction of apoptosis in human MV4-11 cells assessed as viable cells at 300 nM measured after 72 hrs by Annexin-V-FITC/propidium iodide staining based flow cytometry (reference value: 89.49%); type: functional; conditions: read-out: Activity
[35] = system: MV4-11; assay: Down regulation of CDC25A mRNA expression in human MV4-11 cells at 11.1 to 33.3 nM measured after 24 hrs by RT-qPCR analysis; type: functional, cell-based; conditions: dose 11.1-33.3 nM
[36] = Down regulation of SMARCA2 level in human MV4-11 cells at 100 nM measured after 6 hrs by mass spectrometric proteomic analysis relative to control; type: functional
[37] = Tmax in SPF Sprague-Dawley rat at 1 mg/kg, iv by LC-MS/MS analysis; type: ADME, organism-based; conditions: in vivo

With `Cc1ncsc1-c1ccc([C@H](C)NC(=O)[C@@H]2C[C@@H](O)CN2C(=O)[C@@H](NC(=O)C2(c3ccc(-c4cc(-c5ccccc5O)nnc4N)cc3)CC2)C(C)(C)C)cc1` as the molecule, how does the Activity [1] read?
Its Activity is 6.91%.

What about the viability at 1 µM [2] of the same molecule?
Its viability at 1 µM is 25.7%.

What about the Activity [3] of the same molecule?
Its Activity is 54.11%.

And the Activity [4]?
The Activity was “Active”.

And the Activity [5]?
The Activity was “Dose-dependent-effect”.

And the Activity [6]?
The Activity was 0.24%.

What about the Activity [7] of the same molecule?
Its Activity is “Dose-dependent-effect”.

What about the Activity [8] of the same molecule?
The Activity was “Active”.

And the Activity [9]?
The Activity was 0.31%.

And the Activity [10]?
Its Activity is 14.39%.

What about the Activity [11] of the same molecule?
The Activity was 57.3%.

And the Activity [12]?
The Activity was “Dose-dependent-effect”.

What about the Activity [13] of the same molecule?
The Activity was 0.19%.

What about the Activity [14] of the same molecule?
The Activity was 24.35%.

And the Activity [15]?
Its Activity is 58.21%.

What about the Activity [16] of the same molecule?
Its Activity is “Active”.

And the Activity [17]?
Its Activity is “Active”.

And the Activity [18]?
The Activity was 47.5%.

What about the Activity [19] of the same molecule?
The Activity was 1.26%.

What about the Cmax [20] of the same molecule?
The Cmax was 1950 ng/mL.

And the Activity [21]?
Its Activity is “Dose-dependent-effect”.

What about the viability at 0.3 µM [22] of the same molecule?
The viability at 0.3 µM was 27.1%.

What about the Activity [23] of the same molecule?
Its Activity is 51.91%.

And the pIC50 [24]?
The pIC50 was less than 4.52.

And the Cmax [25]?
The Cmax was 6.41 ng/mL.

And the pIC50 [26]?
The pIC50 was 5.75.

What about the Tmax [27] of the same molecule?
The Tmax was 25.2 min.

What about the viability at 1 µM [28] of the same molecule?
Its viability at 1 µM is 22.1%.

And the Activity [29]?
The Activity was 1.67%.

And the F [30]?
The F was 0.62%.

What about the Activity [31] of the same molecule?
Its Activity is “inactive”.

And the MRT last [32]?
The MRT last was 42 min.

And the Activity [33]?
The Activity was 38.84%.

What about the viability at 0.3 µM [34] of the same molecule?
Its viability at 0.3 µM is 24.4%.

What about the Activity [35] of the same molecule?
The Activity was “inactive”.

What about the Activity [36] of the same molecule?
Its Activity is “>=50%”.

What about the Tmax [37] of the same molecule?
The Tmax was 1.98 min.
